Usually IC50 stands for the concentration needed to halve the response being measured.

The values below come from patent US10150728B2, “Alkylene derivatives” (Shionogi & Co., Ltd., priority 2013, dated 2018).

recombinant human ACC2, sequence (O00763 27-2458): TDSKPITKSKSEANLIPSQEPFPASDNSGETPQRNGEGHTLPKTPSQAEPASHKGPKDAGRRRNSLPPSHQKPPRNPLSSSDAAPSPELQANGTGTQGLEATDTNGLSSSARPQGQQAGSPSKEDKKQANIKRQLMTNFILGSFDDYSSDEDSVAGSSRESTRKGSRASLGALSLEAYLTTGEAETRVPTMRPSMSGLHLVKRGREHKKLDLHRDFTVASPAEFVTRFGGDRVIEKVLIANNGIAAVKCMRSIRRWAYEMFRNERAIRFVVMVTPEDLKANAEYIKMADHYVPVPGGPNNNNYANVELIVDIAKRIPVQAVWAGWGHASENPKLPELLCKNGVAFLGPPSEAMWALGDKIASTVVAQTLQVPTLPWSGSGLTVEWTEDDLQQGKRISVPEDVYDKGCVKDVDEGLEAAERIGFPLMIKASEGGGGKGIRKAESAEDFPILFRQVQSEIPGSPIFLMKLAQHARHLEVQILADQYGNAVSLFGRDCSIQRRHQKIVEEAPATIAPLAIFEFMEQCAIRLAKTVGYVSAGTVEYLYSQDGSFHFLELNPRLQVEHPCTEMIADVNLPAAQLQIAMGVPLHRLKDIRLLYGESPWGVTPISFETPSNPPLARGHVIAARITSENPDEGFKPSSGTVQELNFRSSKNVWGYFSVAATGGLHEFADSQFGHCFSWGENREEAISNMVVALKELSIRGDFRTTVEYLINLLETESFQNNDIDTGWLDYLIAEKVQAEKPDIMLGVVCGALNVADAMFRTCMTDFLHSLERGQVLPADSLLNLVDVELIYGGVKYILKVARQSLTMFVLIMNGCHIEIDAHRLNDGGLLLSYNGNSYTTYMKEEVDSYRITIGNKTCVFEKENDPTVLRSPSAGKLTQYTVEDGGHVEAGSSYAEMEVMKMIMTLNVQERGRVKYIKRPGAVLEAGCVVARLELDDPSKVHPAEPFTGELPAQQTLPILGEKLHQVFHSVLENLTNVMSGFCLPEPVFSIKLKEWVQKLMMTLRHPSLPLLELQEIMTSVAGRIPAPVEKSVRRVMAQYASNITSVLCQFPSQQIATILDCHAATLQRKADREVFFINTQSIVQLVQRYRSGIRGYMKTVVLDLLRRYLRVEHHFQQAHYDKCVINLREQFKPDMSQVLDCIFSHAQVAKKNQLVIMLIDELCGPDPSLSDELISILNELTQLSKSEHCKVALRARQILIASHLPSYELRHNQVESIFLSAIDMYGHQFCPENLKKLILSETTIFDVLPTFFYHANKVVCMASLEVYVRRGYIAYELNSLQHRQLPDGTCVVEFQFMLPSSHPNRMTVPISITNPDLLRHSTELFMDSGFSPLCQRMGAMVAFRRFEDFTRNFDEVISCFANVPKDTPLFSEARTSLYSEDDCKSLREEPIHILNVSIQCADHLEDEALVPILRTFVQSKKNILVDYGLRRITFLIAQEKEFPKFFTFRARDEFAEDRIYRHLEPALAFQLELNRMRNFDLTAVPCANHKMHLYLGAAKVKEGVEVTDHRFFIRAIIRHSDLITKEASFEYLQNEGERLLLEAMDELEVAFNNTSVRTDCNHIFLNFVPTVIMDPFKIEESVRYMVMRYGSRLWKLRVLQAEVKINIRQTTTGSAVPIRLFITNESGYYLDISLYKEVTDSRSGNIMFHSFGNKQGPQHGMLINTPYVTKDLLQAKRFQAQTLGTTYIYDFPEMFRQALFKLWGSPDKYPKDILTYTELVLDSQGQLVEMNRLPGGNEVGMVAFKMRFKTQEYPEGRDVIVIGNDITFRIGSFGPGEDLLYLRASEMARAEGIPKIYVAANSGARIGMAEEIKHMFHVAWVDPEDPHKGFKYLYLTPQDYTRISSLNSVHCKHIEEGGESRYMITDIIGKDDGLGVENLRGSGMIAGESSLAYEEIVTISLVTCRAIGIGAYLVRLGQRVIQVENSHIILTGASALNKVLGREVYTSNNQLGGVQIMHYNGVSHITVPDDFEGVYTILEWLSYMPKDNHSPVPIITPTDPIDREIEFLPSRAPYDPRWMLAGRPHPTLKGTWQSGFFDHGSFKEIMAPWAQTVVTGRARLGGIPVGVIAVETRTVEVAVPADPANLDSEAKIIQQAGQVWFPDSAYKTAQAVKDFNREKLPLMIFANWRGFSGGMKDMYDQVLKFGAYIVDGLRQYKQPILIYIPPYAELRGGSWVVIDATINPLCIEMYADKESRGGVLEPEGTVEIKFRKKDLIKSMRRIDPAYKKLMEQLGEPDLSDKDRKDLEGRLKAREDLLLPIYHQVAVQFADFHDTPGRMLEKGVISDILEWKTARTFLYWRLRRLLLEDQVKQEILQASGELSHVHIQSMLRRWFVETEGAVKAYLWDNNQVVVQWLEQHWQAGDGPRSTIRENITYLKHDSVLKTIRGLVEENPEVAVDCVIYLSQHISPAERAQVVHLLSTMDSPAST

The experiment concerns the target recombinant human ACC2 (Homo sapiens (Human), UniProt O00763). In words: Measurement of inhibitory activity on human ACC2 (MALDI-TOF MS, acetyl CoA to malonyl CoA conversion). The conditions noted are these: Tables 155-159. The experiment is classed as biochemical. Put shortly: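 His-tagged human ACC2 (residues 27–2458) from baculovirus-infected Sf-9 cells was preincubated 1 h in pH 7.4 HEPES-KOH buffer with MgCl2, 6-10 mM potassium citrate, glutathione and BSA. Substrate solution held 1 mM ATP, 0.8 mM acetyl CoA and 25-50 mM bicarbonate. After 1–3 h at room temperature, malonyl CoA/(malonyl+acetyl CoA) was read by negative-mode MALDI-TOF MS; citrate, bicarbonate and time varied by enzyme lot.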
In the case of `CC(=O)N[C@@H](C)CO[C@H]1C[C@H](COc2nccc(-c3ncc(C(F)(F)F)cn3)c2C)C1` [Compound I-380], the half-inhibitory concentration (IC50) is 59 nM.
As to `CC(=O)N[C@@H](C)CO[C@H]1C[C@H](COc2nccc3c2cnn3CC2CC2)C1` [Compound I-381], the IC50 came out at 155 nM.
`CC(=O)N[C@@H](C)CO[C@H]1C[C@H](COc2nccc3c2OCCN3Cc2ccccc2)C1` [Compound I-382]: the IC50 was 176 nM.
`CC(=O)N[C@@H](C)CO[C@H]1C[C@H](COc2ncnc(OCc3ccccc3)c2F)C1` [Compound I-383]: the 50% inhibitory concentration (IC50) worked out at 8 nM.
For the compound `CC(=O)N[C@@H](C)CO[C@H]1C[C@H](COc2ncnc(OCc3cccc(Cl)n3)c2Cl)C1` [Compound I-384], the 50% inhibitory concentration (IC50) came to 364 nM.
Consider `CC(=O)N[C@@H](C)CO[C@H]1C[C@H](COc2ncnc(OCc3cc(Cl)ccn3)c2Cl)C1` [Compound I-385], for which the half-maximal inhibitory concentration (IC50) was 4 nM.
With `CC(=O)N[C@@H](C)CO[C@H]1C[C@H](COc2ncnc(OCc3ncccc3Cl)c2Cl)C1` [Compound I-386], the half-maximal inhibitory concentration (IC50) is 70 nM.
The figure for `CC(=O)N[C@@H](C)CO[C@H]1C[C@H](COc2nccc3c2cnn3Cc2ccccc2)C1` [Compound I-387] is 392 nM.
Then `CC(=O)N[C@@H](C)CO[C@H]1C[C@H](COc2ncnc(OCc3ccccc3F)c2Cl)C1` [Compound I-388], with 14 nM; and `CC(=O)N[C@@H](C)CO[C@H]1C[C@H](COc2ncnc(OCc3cccc(F)c3)c2Cl)C1` [Compound I-389], with 8 nM; and `CC(=O)N[C@@H](C)CO[C@H]1C[C@H](COc2ncnc(OCc3ccc(F)cc3)c2Cl)C1` [Compound I-390], with 7 nM.
Consider `CC(=O)N[C@@H](C)CO[C@H]1C[C@H](COc2ncnc(NCc3ccccc3)c2Cl)C1` [Compound I-391], for which the IC50 was 21 nM.
The figure for `CC(=O)N[C@@H](C)CO[C@H]1C[C@H](COc2ncnc(OCc3cccnc3)c2Cl)C1` [Compound I-392] is 69 nM; for `CC(=O)N[C@@H](C)CO[C@H]1C[C@H](COc2ncnc(OCc3ccncc3)c2Cl)C1` [Compound I-393] it is 155 nM.
Then `CC(=O)N[C@@H](C)CO[C@H]1C[C@](C)(COc2nccc(-c3ccc(F)cc3)c2Cl)C1` [Compound I-394], with 18 nM; and `CC(=O)N[C@@H](C)CO[C@H]1C[C@H](COc2nccc(OCc3ccccc3)c2Cl)C1` [Compound I-395], with 7 nM.
The figure for `CC(=O)N[C@@H](C)CO[C@H]1C[C@H](COc2ncnc(OCc3ccc(Cl)cn3)c2Cl)C1` [Compound I-396] is 8 nM; for `CC(=O)N[C@@H](C)CO[C@H]1C[C@H](COc2ncnc(Oc3noc4ccccc34)c2Cl)C1` [Compound I-397] it is 31 nM.
For the compound `CC(=O)N[C@@H](C)CO[C@H]1C[C@H](COc2ncnc(-n3oc4ccccc4c3=O)c2Cl)C1` [Compound I-398], the IC50 is 115 nM.
`CC(=O)N[C@@H](C)CO[C@H]1C[C@H](COc2ncnc(Oc3nsc4ccccc34)c2Cl)C1` [Compound I-399]: the IC50 came out at 40 nM.
Take `CC(=O)N[C@@H](C)CO[C@]1(C)C[C@@H](COc2nccc(-c3ccc(F)cc3)c2Cl)C1` [Compound I-400]: the IC50 is 17 nM.
As for `CC(=O)N[C@@H](C)CO[C@H]1C[C@H](COc2nccc(NCc3ccccc3)c2Cl)C1` [Compound I-401], the IC50 was 23 nM.
Then `CC(=O)N[C@@H](C)CO[C@H]1C[C@H](COc2ncnc(N(C)Cc3ccccc3)c2Cl)C1` [Compound I-402], with 83 nM; and `CC(=O)N[C@@H](C)CO[C@H]1C[C@H](COc2ncnc(OCc3ccc(C)cn3)c2Cl)C1` [Compound I-403], with 43 nM; and `COc1cccc(COc2ncnc(OC[C@H]3C[C@H](OC[C@H](C)NC(C)=O)C3)c2Cl)n1` [Compound I-404], with 676 nM.
Then `CC(=O)N[C@@H](C)CO[C@H]1C[C@H](COc2ncnc(OCc3ncccc3F)c2Cl)C1` [Compound I-405], with 62 nM.
Then `CC(=O)N[C@@H](C)CO[C@H]1C[C@H](COc2ncnc(OCc3cnccn3)c2Cl)C1` [Compound I-406], with 131 nM; and `CCOc1ccc(COc2ncnc(OC[C@H]3C[C@H](OC[C@H](C)NC(C)=O)C3)c2Cl)cc1` [Compound I-407], with 533 nM.
Take `CCOc1cccc(COc2ncnc(OC[C@H]3C[C@H](OC[C@H](C)NC(C)=O)C3)c2Cl)c1` [Compound I-408]: the IC50 was determined as 465 nM.
As to `CC(=O)N[C@@H](C)CO[C@H]1C[C@H](COc2ncnc(OCc3nccs3)c2Cl)C1` [Compound I-409], the half-maximal inhibitory concentration (IC50) came to 74 nM.
Then `CC(=O)N[C@@H](C)CO[C@H]1C[C@H](COc2ncnc(OCc3ncc(C)s3)c2Cl)C1` [Compound I-410], with 15 nM; and `CC(=O)N[C@@H](C)CO[C@H]1C[C@H](COc2ncnc(OCc3csc(Cl)n3)c2Cl)C1` [Compound I-411], with 937 nM; and `CC(=O)N[C@@H](C)CO[C@H]1C[C@H](COc2ncnc(OCc3cscn3)c2Cl)C1` [Compound I-412], with 42 nM.
Take `CC(=O)N[C@@H](C)CO[C@H]1C[C@H](COc2nccc(N(C)Cc3ccccc3)c2Cl)C1` [Compound I-413]: the IC50 was found to be 84 nM.
Consider `CC(=O)N[C@@H](C)CO[C@H]1C[C@H](COc2nccc(N3CCCC3C)c2Cl)C1` (some centres unmarked) [Compound I-414], for which the IC50 was 59 nM.
Then `CC(=O)N[C@@H](C)CO[C@H]1C[C@H](COc2ncnc(OCc3ccccc3)c2C)C1` [Compound I-415], with 18 nM.
For `CC(=O)N[C@@H](C)CO[C@H]1C[C@H](COc2ncnc(/C=C/c3ccccc3)c2C)C1` [Compound I-416], the concentration for half-maximal inhibition (IC50) was 90 nM.
For the compound `CC(=O)N[C@@H](C)CO[C@H]1C[C@H](COc2ncnc(-c3ccc(F)cc3)c2C)C1` [Compound I-417], the IC50 worked out at 451 nM.
`CC(=O)N[C@@H](C)CO[C@H]1C[C@H](COc2ncnc(-c3ccc(C(F)(F)F)cc3)c2C)C1` [Compound I-418]: the half-inhibitory concentration (IC50) is 733 nM.
The figure for `CC(=O)N[C@@H](C)CO[C@H]1C[C@H](COc2ncnc(C3=CCCCC3)c2C)C1` [Compound I-419] is 109 nM; for `COc1ccc(-c2ncnc(OC[C@H]3C[C@H](OC[C@H](C)NC(C)=O)C3)c2C)cc1` [Compound I-420] it is 447 nM; for `CC(=O)N[C@@H](C)CO[C@H]1C[C@H](COc2ncnc(OCC3CC3)c2C)C1` [Compound I-421] it is 24 nM.
For `CC(=O)N[C@@H](C)CO[C@H]1C[C@H](COc2nccc(OC3CC(F)(F)C3)c2Cl)C1` [Compound I-422], the IC50 is 358 nM.
The figure for `CC(=O)N[C@@H](C)CO[C@H]1C[C@H](COc2nsc3ccccc23)C1` [Compound I-424] is 122 nM.
On to `CC(=O)N[C@@H](C)CO[C@H]1C[C@H](COc2ncnc3c2c(I)cn3CC2CC2)C1` [Compound I-425], for which the IC50 was determined as 170 nM.
Then `CC(=O)N[C@@H](C)CO[C@H]1C[C@H](COc2ncnc3c2c(C)cn3CC2CC2)C1` [Compound I-426], with 57 nM.
Consider `CC(=O)N[C@@H](C)CO[C@H]1C[C@H](COc2ncnc3c2c(C#N)cn3CC2CC2)C1` [Compound I-427], for which the concentration for half-maximal inhibition (IC50) was 270 nM.
Then `CC(=O)N[C@@H](C)CO[C@H]1C[C@H](COc2nccc3c2cnn3CC2CCC2)C1` [Compound I-428], with 53 nM; and `CC(=O)N[C@@H](C)CO[C@H]1C[C@H](COc2ncnc(COc3ccccc3)c2Cl)C1` [Compound I-429], with 26 nM; and `CC(=O)N[C@@H](C)CO[C@H]1C[C@H](COc2ncnc3c2ccn3Cc2ccccc2)C1` [Compound I-430], with 12 nM.
Regarding `CC(=O)N[C@@H](C)CO[C@H]1C[C@H](COc2ncnc(OCc3ncco3)c2Cl)C1` [Compound I-431], the concentration for half-maximal inhibition (IC50) turned out to be 809 nM.
On to `CC(=O)N[C@@H](C)CO[C@H]1C[C@H](COc2ncnc3c2ccn3Cc2ccccn2)C1` [Compound I-432], for which the IC50 stood at 588 nM.
The figure for `CC(=O)N[C@@H](C)CO[C@H]1C[C@H](COc2nccc(NC(=O)C3CCCCC3)c2Cl)C1` [Compound I-433] is 11 nM; for `CC(=O)N[C@@H](C)CO[C@H]1C[C@H](COc2ncnc3c2ccn3Cc2cccnc2)C1` [Compound I-434] it is 653 nM.
The figure for `CC(=O)N[C@@H](C)CO[C@H]1C[C@H](COc2ncnc(OCc3ccccn3)c2Cl)C1` [Compound I-435] is 7 nM; for `CC(=O)N[C@@H](C)CO[C@H]1C[C@@H](COc2ncnc(OCc3ccccn3)c2Cl)C1` [Compound I-436] it is 4 nM; for `CC(=O)N[C@@H](C)CO[C@H]1C[C@H](COc2ncnc(OCc3cc(C(F)(F)F)ccn3)c2Cl)C1` [Compound I-437] it is 19 nM.
The figure for `CC(=O)N[C@@H](C)CO[C@H]1C[C@H](COc2ncnc(OCc3ncc(Cl)s3)c2Cl)C1` [Compound I-439] is 4 nM.
With `CC(=O)N[C@@H](C)CO[C@H]1C[C@H](COc2ncnc3c2c(F)cn3CC2CC2(F)F)C1` (some centres unmarked) [Compound I-440], the IC50 turned out to be 19 nM.
The figure for `CC(=O)N[C@@H](C)CO[C@H]1C[C@H](COc2ncnc(OCc3ncc(F)s3)c2Cl)C1` [Compound I-441] is 12 nM; for `CC(=O)N[C@@H](C)CO[C@H]1C[C@H](Oc2nccc3c(OCC4CC4)nccc23)C1` [Compound I-442] it is 35 nM; for `CC(=O)N[C@@H](C)CO[C@H]1C[C@H](COc2ncnc(OCc3nnc(C(F)(F)F)s3)c2Cl)C1` [Compound I-443] it is 240 nM.
The figure for `CC(=O)N[C@@H](C)CO[C@H]1C[C@H](COc2ncnc3c2ccn3CCC2CC2)C1` [Compound I-444] is 51 nM; for `CC(=O)N[C@@H](C)CO[C@H]1C[C@H](Oc2nccc3c(OCc4ccccc4)nccc23)C1` [Compound I-445] it is 14 nM.
In the case of `CC(=O)N[C@@H](C)CO[C@H]1CC[C@H](Oc2ncnc(OCc3ccc(F)cn3)c2Cl)CC1` [Compound I-446], the concentration for half-maximal inhibition (IC50) worked out at 77 nM.
